Source: ChEMBL document CHEMBL3351289, “4-Substituted quinazoline derivatives as novel EphA2 receptor tyrosine kinase inhibitors” (Bioorg Med Chem Lett, 2014)

Tests used:
Ephrin type-A receptor 2 [1] = molecular target: T1, Ephrin type-A receptor 2 (Homo sapiens, UniProt P29317); assay: Inhibition of EphA2 (unknown origin) at 10 uM pre-incubated with enzyme for 10 mins before adding peptide substrate and ATP using TK-substrate-biotin and SEB by time-resolved fluorescence resonance energy transfer assay
[2] = molecular target: Mitogen-activated protein kinase 8 (Homo sapiens) (UniProt P45983); assay: Inhibition of JNK1 (unknown origin) at 1 uM
[3] = molecular target: Insulin-like growth factor 1 receptor (Homo sapiens) (UniProt P08069); assay: Inhibition of IGF1R (unknown origin) at 1 uM
[4] = molecular target: Epidermal growth factor receptor (Homo sapiens) (UniProt P00533); assay: Inhibition of EGFR (unknown origin) at 1 uM
Ephrin type-A receptor 2 [5] = molecular target: T1, Ephrin type-A receptor 2; assay: Inhibition of EphA2 (unknown origin) pre-incubated with enzyme for 10 mins before adding peptide substrate and ATP using TK-substrate-biotin and SEB by time-resolved fluorescence resonance energy transfer assay
Ephrin type-A receptor 2 [6] = molecular target: T1, Ephrin type-A receptor 2; assay: Inhibition of EphA2 (unknown origin) expressed in […] cells assessed as reduction in wound closure after 72 hrs by phase contrast microscopy based would healing assay; format: cell-based
[7] = molecular target: Mitogen-activated protein kinase 11 (Homo sapiens) (UniProt Q15759); assay: Inhibition of p38beta (unknown origin) at 1 uM
[8] = molecular target: Mitogen-activated protein kinase 1 (Homo sapiens) (UniProt P28482); assay: Inhibition of ERK2 (unknown origin) at 1 uM
[9] = molecular target: Vascular endothelial growth factor receptor 2 (Homo sapiens) (UniProt P35968); assay: Inhibition of KDR (unknown origin) at 1 uM
[10] = molecular target: Platelet-derived growth factor receptor alpha (Homo sapiens) (UniProt P16234); assay: Inhibition of PDGFRalpha (unknown origin) at 1 uM
[11] = molecular target: Glycogen synthase kinase-3 beta (Homo sapiens) (UniProt P49841); assay: Inhibition of GSK3beta (unknown origin) at 1 uM
[12] = molecular target: Receptor tyrosine-protein kinase erbB-2 (Homo sapiens) (UniProt P04626); assay: Inhibition of HER2 (unknown origin) at 1 uM
[13] = molecular target: Mitogen-activated protein kinase 14 (Homo sapiens) (UniProt Q16539); assay: Inhibition of p38alpha (unknown origin) at 1 uM
[14] = molecular target: Insulin receptor (Homo sapiens) (UniProt P06213); assay: Inhibition of InsR (unknown origin) at 1 uM
[15] = molecular target: Mitogen-activated protein kinase 10 (Homo sapiens) (UniProt P53779); assay: Inhibition of JNK3 (unknown origin) at 1 uM
Chain of Mitogen-activated protein kinase 10 (Homo sapiens) (P53779 whole entry): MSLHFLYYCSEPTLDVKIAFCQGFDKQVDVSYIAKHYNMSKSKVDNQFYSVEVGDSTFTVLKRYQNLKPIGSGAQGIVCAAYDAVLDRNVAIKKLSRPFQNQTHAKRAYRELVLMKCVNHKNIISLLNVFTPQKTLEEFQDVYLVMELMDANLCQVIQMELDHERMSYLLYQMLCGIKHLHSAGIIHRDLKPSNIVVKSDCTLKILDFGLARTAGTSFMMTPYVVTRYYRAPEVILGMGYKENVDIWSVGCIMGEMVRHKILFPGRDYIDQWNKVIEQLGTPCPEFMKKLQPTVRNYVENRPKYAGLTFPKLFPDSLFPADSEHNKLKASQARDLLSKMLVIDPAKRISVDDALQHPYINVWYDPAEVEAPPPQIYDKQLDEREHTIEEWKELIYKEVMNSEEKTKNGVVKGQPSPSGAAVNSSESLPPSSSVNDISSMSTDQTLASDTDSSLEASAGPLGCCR

T1 sequence (P29317 whole entry): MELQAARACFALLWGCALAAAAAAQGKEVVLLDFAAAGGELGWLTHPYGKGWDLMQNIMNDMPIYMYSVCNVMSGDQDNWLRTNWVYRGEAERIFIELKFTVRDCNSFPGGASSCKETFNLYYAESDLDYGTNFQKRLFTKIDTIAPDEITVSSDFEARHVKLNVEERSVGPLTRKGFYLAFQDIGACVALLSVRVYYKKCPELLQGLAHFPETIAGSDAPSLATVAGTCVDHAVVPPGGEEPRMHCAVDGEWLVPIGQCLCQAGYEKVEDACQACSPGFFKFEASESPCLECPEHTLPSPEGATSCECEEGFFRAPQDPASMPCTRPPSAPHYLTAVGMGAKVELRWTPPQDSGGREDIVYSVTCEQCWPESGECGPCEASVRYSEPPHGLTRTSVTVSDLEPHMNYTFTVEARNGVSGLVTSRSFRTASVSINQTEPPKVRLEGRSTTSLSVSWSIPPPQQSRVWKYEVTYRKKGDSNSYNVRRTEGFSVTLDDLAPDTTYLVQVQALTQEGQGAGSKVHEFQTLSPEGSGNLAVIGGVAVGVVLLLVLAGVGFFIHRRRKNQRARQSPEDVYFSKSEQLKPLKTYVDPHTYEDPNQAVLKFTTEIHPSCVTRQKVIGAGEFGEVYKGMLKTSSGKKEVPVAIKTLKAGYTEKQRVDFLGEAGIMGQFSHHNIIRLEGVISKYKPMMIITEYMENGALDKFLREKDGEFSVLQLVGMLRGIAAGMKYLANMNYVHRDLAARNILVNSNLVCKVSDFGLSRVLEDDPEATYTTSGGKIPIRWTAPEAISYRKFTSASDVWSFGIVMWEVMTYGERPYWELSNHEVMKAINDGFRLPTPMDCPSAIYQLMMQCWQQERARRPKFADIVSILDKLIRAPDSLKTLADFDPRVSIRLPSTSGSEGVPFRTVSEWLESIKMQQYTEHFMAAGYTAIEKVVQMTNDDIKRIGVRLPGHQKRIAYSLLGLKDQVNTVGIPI
Chain of Mitogen-activated protein kinase 14 (Homo sapiens) (Q16539 whole entry): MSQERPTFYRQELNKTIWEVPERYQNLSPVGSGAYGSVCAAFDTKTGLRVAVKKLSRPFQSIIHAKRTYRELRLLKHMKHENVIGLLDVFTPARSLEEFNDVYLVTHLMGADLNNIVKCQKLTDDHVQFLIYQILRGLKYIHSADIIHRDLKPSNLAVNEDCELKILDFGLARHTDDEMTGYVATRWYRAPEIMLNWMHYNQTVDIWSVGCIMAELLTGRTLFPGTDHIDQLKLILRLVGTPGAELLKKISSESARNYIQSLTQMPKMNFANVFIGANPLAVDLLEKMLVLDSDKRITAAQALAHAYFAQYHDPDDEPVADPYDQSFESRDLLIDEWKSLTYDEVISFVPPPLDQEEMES
Chain of Platelet-derived growth factor receptor alpha (Homo sapiens) (P16234 whole entry): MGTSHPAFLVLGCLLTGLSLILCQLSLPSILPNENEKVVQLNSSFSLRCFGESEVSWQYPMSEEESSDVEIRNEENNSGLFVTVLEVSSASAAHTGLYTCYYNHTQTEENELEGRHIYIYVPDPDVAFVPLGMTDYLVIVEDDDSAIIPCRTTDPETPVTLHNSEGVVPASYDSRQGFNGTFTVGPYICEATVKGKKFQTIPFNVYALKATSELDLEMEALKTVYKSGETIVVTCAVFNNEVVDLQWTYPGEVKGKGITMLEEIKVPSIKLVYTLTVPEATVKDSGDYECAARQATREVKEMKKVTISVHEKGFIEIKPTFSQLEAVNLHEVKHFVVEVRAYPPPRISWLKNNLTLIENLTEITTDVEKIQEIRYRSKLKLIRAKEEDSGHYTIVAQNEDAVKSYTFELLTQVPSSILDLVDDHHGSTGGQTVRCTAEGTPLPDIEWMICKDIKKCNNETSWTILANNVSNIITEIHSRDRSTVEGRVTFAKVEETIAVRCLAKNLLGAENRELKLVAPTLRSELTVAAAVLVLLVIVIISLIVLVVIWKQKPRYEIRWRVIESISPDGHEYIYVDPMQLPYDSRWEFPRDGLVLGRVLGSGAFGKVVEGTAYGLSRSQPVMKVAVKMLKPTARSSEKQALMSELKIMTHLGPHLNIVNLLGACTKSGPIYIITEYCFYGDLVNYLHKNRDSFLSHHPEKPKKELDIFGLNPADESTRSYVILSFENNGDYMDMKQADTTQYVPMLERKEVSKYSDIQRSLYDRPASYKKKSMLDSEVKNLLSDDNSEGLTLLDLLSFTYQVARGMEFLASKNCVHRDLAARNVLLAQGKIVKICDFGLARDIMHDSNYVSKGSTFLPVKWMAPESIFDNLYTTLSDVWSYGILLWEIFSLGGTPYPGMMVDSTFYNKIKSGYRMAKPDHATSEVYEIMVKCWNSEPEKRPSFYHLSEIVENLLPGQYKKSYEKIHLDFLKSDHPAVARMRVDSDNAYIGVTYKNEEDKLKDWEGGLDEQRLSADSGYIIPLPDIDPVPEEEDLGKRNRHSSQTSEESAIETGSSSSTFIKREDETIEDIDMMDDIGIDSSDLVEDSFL
Chain of Glycogen synthase kinase-3 beta (Homo sapiens) (P49841 whole entry, looked up): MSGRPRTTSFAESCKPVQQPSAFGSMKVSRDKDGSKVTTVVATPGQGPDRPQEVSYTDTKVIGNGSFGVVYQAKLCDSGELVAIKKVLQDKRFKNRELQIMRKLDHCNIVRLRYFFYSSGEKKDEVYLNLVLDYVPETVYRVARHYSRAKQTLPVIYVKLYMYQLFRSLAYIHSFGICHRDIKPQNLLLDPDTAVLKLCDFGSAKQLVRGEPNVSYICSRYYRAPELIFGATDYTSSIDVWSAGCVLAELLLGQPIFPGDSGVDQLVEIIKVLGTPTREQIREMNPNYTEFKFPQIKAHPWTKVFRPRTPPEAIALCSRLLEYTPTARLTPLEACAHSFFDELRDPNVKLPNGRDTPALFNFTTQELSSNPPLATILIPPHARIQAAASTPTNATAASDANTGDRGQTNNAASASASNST
Chain of Receptor tyrosine-protein kinase erbB-2 (Homo sapiens) (P04626 whole entry): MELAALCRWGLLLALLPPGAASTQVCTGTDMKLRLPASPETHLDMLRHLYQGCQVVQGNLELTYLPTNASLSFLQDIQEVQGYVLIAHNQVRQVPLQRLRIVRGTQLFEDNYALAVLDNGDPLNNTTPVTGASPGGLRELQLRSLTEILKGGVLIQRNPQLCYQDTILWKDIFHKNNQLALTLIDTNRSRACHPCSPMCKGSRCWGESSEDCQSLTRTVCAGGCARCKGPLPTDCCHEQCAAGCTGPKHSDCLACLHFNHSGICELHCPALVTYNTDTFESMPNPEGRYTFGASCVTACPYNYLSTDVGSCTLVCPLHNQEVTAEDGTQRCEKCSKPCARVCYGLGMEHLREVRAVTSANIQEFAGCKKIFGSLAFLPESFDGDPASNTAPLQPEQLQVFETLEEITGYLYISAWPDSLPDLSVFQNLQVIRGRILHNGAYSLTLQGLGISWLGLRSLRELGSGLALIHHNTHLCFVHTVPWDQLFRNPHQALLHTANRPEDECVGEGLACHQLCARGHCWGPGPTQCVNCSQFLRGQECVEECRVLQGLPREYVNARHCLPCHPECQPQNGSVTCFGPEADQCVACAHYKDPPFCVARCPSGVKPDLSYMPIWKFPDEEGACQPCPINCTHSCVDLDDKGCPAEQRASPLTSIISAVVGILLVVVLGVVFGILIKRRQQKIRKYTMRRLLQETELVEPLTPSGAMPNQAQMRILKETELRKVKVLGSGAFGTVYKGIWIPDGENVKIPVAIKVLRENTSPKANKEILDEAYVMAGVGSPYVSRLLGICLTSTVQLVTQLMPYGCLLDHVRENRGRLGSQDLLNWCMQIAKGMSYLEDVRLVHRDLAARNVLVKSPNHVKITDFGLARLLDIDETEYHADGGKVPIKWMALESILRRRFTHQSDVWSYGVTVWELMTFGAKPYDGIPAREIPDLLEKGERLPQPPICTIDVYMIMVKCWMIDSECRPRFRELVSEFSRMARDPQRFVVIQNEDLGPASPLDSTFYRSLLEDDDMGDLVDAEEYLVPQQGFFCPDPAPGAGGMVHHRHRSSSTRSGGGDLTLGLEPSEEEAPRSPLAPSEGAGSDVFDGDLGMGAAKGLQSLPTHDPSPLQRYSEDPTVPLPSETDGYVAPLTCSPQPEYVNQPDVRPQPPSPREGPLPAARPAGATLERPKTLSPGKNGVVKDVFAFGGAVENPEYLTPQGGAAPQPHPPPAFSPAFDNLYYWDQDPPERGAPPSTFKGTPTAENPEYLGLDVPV
Chain of Mitogen-activated protein kinase 8 (Homo sapiens) (P45983 whole entry): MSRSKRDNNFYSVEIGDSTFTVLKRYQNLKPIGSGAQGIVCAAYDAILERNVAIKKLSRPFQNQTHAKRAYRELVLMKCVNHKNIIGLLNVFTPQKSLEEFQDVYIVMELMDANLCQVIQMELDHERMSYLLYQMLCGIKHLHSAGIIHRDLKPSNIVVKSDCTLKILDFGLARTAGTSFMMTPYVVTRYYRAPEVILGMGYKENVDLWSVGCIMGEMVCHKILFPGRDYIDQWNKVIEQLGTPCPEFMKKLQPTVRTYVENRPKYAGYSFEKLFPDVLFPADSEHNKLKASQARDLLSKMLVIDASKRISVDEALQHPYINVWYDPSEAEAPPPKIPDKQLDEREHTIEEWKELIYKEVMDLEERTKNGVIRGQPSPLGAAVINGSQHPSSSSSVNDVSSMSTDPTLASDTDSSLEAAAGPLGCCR

Compound	inhibition (Ephrin type-A receptor 2 [1])	inhibition [2]	inhibition [3]	inhibition [4]	IC50 (Ephrin type-A receptor 2 [5])	inhibition (Ephrin type-A receptor 2 [6])	inhibition [7]	inhibition [8]	inhibition [9]	inhibition [10]	inhibition [11]	inhibition [12]	inhibition [13]	inhibition [14]	inhibition [15]
CCCc1ccc(Nc2ncnc3cc(OCC4CNCCO4)c(OC)cc23)cc1 (stereo not given)	49%														
COc1cc2c(Nc3ccc(Cl)cc3F)ncnc2cc1OCC1CNCCO1 (stereo not given)		0%	7%	100%	160 nM	Dose-dependent effect	2%	0%	76%	17%	11%	22%	16%	15%	0%
